Key:
D(2) dopamine receptor [1] = target: T1, D(2) dopamine receptor (Homo sapiens, UniProt P14416)
D(2) dopamine receptor [2] = target: T1, D(2) dopamine receptor; remark: listed apart in the source
D(2) dopamine receptor [3] = target: T1, D(2) dopamine receptor; remark: listed apart in the source
D(2) dopamine receptor [4] = target: T1, D(2) dopamine receptor; assay: Antagonist activity at human dopamine D2 receptor expressed in HEK293 cells coexpressing renilla luciferase-fused GalphaoA/GFP10-fused Ggamma2 assessed as inhibition of quinpirole-induced GalphaoA activation by BRET assay relative to quinpirole; assay type: cell-based
D(2) dopamine receptor [5] = target: T1, D(2) dopamine receptor; remark: listed apart in the source
D(2) dopamine receptor [6] = target: T1, D(2) dopamine receptor; assay: Antagonist activity at renilla luciferase-tagged human dopamine D2 receptor expressed in HEK293 cells coexpressing mVenus-fused beta-arrestin 2 assessed as reduction in quinpirole-mediated beta-arrestin 2 recruitment preincubated for 15 mins followed by quinpirole addition measured for 1 sec by BRET assay relative to quinpirole; assay type: cell-based
D(2) dopamine receptor [7] = target: T1, D(2) dopamine receptor; remark: listed apart in the source
D(2) dopamine receptor [8] = target: T1, D(2) dopamine receptor; assay: Antagonist activity at human dopamine D2 receptor expressed in forskolin stimulated-HEK293 cells coexpressing renilla luciferase-fused Galphai1/GFP10-fused Ggamma2 assessed as inhibition of quinpirole-induced Galphai1 activation by BRET assay relative to quinpirole; assay type: cell-based
D(2) dopamine receptor [9] = target: T1, D(2) dopamine receptor; remark: listed apart in the source
D(2) dopamine receptor [10] = target: T1, D(2) dopamine receptor; remark: listed apart in the source
D(3) dopamine receptor [11] = target: T2, D(3) dopamine receptor (Homo sapiens, UniProt P35462); assay: biochemical
T2 sequence (P35462 whole entry): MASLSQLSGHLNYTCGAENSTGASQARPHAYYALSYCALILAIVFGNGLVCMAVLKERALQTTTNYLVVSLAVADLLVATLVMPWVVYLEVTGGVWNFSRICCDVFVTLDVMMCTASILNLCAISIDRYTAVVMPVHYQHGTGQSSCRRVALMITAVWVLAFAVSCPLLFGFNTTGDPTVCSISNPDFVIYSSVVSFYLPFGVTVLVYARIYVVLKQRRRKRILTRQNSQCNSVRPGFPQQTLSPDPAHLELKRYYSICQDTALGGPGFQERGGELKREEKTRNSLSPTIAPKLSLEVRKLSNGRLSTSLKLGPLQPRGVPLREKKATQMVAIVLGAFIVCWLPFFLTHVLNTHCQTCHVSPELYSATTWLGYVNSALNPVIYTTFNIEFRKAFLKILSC

D(2) dopamine receptor [12] = target: T1, D(2) dopamine receptor; assay: biochemical
D(2) dopamine receptor [13] = target: T1, D(2) dopamine receptor; assay: Antagonist activity at human dopamine D2 receptor expressed in HEK293 cells assessed as reduction in quinpirole-mediated cAMP inhibition preincubated for 15 mins followed by quinpirole addition measured for 1 sec by BRET assay relative to quinpirole; assay type: functional, cell-based
D(3) dopamine receptor [14] = target: T2, D(3) dopamine receptor

T1 sequence (P14416 whole entry): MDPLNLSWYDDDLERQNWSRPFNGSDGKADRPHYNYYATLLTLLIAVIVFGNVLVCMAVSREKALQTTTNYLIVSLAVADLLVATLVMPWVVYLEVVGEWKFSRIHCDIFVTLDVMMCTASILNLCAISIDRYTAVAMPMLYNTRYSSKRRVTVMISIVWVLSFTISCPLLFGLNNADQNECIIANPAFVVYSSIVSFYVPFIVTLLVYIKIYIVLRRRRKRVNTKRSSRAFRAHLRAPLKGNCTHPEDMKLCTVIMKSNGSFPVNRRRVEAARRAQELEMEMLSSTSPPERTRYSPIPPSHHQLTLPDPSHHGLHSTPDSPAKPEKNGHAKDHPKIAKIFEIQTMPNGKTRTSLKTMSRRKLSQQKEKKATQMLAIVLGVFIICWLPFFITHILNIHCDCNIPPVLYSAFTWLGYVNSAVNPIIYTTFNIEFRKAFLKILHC

SMILES | EC50 (D(2) dopamine receptor [1]) [nM] | IC50 (D(2) dopamine receptor [2]) [nM] | Imax (D(2) dopamine receptor [4]) [%] | IC50 (D(2) dopamine receptor [5]) [nM] | Imax (D(2) dopamine receptor [6]) [%] | EC50 (D(2) dopamine receptor [7]) [nM] | Imax (D(2) dopamine receptor [8]) [%] | EC50 (D(2) dopamine receptor [9]) [nM] | EC50 (D(2) dopamine receptor [10]) [nM] | Ki (D(3) dopamine receptor [11]) [nM] | Ki (D(2) dopamine receptor [12]) [nM] | Imax (D(2) dopamine receptor [13]) [%] | IC50 (D(2) dopamine receptor [3]) [nM] | Ki (D(3) dopamine receptor [14]) [nM]
CCCN(CCC)[C@@H]1Cc2cccc3c2n(c(=O)n3CCC)C1 | 1 | 98.9 | -24 | 931 | -23 | 20.5 | -45 | 16.8 | 0.9 |  |  |  | 158 | 
CN(CCCCOc1ccc2c(c1)NC(=O)CC2)[C@@H]1Cc2cccc3[nH]c(=O)n(c23)C1 | 3.1 |  |  |  |  | 74 |  | 189 | 158 | 382 | 40.1 |  |  | 
CN[C@@H]1Cc2cccc3c2n(c(=O)n3CCOCCOCCOCCOc2ccc3c(c2)NC(=O)CC3)C1 | 1000 |  | -18 |  | -67 | 1870 | -66 | 3980 | 1060 | 640 | 306 | -10 to 0 |  | 
CN[C@@H]1Cc2cccc3c2n(c(=O)n3CCCCOCCCCc2ccccc2)C1 |  |  |  |  |  |  |  |  |  | 377 | 121 |  |  | 
CN[C@@H]1Cc2cccc3c2n(c(=O)n3CCOCCOCCOCCCCc2ccccc2)C1 | 279 |  | -83 |  | -47 | 139 | -72 | 678 | 88.7 | 558 | 34.7 | -10 to 0 |  | 
CN[C@@H]1Cc2cccc3c2n(c(=O)n3CCCCOc2ccc3c(c2)NC(=O)CC3)C1 | 255 |  | -64 | 4100 | -27 | 1500 | -34 | 713 | 105 | 1350 | 338 | -10 to 0 |  | 
CN[C@@H]1Cc2cccc3c2n(c(=O)n3CCCCCCCCCCCCOc2ccc3c(c2)NC(=O)CC3)C1 | 1460 |  | -71 |  | -13 |  | -141 | 570 | 667 | 598 | 284 | -10 to 0 |  | 
CN[C@@H]1Cc2cccc3[nH]c(=O)n(c23)C1 [SUMANIROLE] |  |  |  |  |  |  |  |  |  |  |  |  |  | 573
CCCN(CCC)[C@@H]1Cc2cccc3c2n(c(=O)n3CCCCNC(=O)c2cc3ccccc3[nH]2)C1 | 53.8 | 2010 | -27 | 3650 | -41 | 270 | -64 | 185 | 56.9 |  |  | -10 to 0 | 713 | 
CCCN(CCCCNC(=O)c1cc2ccccc2[nH]1)[C@@H]1Cc2cccc3c2n(c(=O)n3CCC)C1 | 338 | 4530 | -40 | 2970 | -28 | 944 | -31 | 1150 | 458 |  |  | -10 to 0 |  | 

More lines, in order of falling Ki (D(3) dopamine receptor [11]), values ahead:

EC50 (D(2) dopamine receptor [1]) [nM] | IC50 (D(2) dopamine receptor [2]) [nM] | Imax (D(2) dopamine receptor [4]) [%] | IC50 (D(2) dopamine receptor [5]) [nM] | Imax (D(2) dopamine receptor [6]) [%] | EC50 (D(2) dopamine receptor [7]) [nM] | Imax (D(2) dopamine receptor [8]) [%] | EC50 (D(2) dopamine receptor [9]) [nM] | EC50 (D(2) dopamine receptor [10]) [nM] | Ki (D(3) dopamine receptor [11]) [nM] | Ki (D(2) dopamine receptor [12]) [nM] | Imax (D(2) dopamine receptor [13]) [%] | SMILES | IC50 (D(2) dopamine receptor [3]) [nM] | Ki (D(3) dopamine receptor [14]) [nM]
1230 |  | -36 |  | -13 | 2470 | -87 | 1850 | 351 | 227 | 111 |  | CN[C@@H]1Cc2cccc3c2n(c(=O)n3CCOCCOCCCCc2ccccc2)C1 |  | 
 |  |  |  |  |  |  |  |  | 141 | 124 |  | CN[C@@H]1Cc2cccc3c2n(c(=O)n3CCCCCCCCCCCCOCCCCc2ccccc2)C1 |  | 
 |  |  |  |  |  |  |  |  | 139 | 60.6 |  | CN[C@@H]1Cc2cccc3c2n(c(=O)n3CCCCCCOCCCCc2ccccc2)C1 |  | 
 |  |  |  |  |  |  |  |  | 115 | 18.5 |  | CCCN[C@@H]1Cc2cccc3c2n(c(=O)n3CCCCNC(=O)c2cc3ccccc3[nH]2)C1 |  | 
710 | 802 | -33 | 4490 | -10 to 0 | 2530 | -80 |  |  | 113 | 23.8 | -10 to 0 | CN[C@@H]1Cc2cccc3c2n(c(=O)n3CCCCCCCCCCOCCCCc2ccccc2)C1 |  | 
25.6 |  |  |  |  | 197 |  | 194 | 24.6 | 94.2 | 37.2 |  | CCCN[C@@H]1Cc2cccc3c2n(c(=O)n3CCCCOCCCCc2ccccc2)C1 |  | 
 |  |  |  |  |  |  |  |  | 80.6 | 54.8 |  | CCCN[C@@H]1Cc2cccc3c2n(c(=O)n3CCCCCCOCCCCc2ccccc2)C1 |  | 
 |  | -67 |  | -10 to 0 |  | -59 |  |  | 77.7 | 38.7 | -10 to 0 | CN[C@@H]1Cc2cccc3c2n(c(=O)n3CCCCCCCCOCCCCc2ccccc2)C1 |  | 
 |  |  |  |  |  |  |  |  | 2.45 | 21.8 |  | CCCn1c(=O)n2c3c(cccc31)C[C@@H](N(C)CCCCNC(=O)c1cc3ccccc3[nH]1)C2 |  | 
